Results from patent publication US11572358B2, “Solid forms of an sGC stimulator” (Cyclerion Therapeutics, Inc., priority 2016, dated 2023).

Assay: Storage stability at 40° C. and 75% relative humidity, XRPD trace before and after
Type: physicochemical
Settings: stored for 14 months at 40° C. and 75% relative humidity
Description: When comparing XRPD spectra, a spectrum will be “substantially similar” to one shown in this disclosure for a particular solid form of Compound I, wherein the characteristic peaks in said spectrum are measured at the same values of °2θ as those shown in the figure of this disclosure, or within a range of + or −0.5 units of °2θ from those peaks shown in said figure.
X-Ray Powder Diffraction traces were obtained using a D8 Advance, Bruker apparatus; using one of two Methods:
Scan 5-45° 2-theta, 0.02° step size, 1 sec per step; or
Scan 3-40° 2-theta, 0.037° step size, 1.5 sec per step

XRPD trace after storage: essentially unchanged
SMILES: NC(=O)[C@](O)(CNc1nc(-c2cc(-c3ccon3)n(Cc3ccccc3F)n2)ncc1F)C(F)(F)F [Form B, (R)-3,3,3-trifluoro-2-(((5-fluoro-2-(1-(2-fluorobenzyl)-5-(isoxazol-3-yl)-1H-pyrazol-3-yl)pyrimidin-4-yl)amino)methyl)-2-hydroxypropanamide]
